Consider 8 compounds from patent US4418064A, “Chemotherapeutically active maytansinoids: treflorine, trenudine, and N-methyltrenudone” (priority 1982, dated 1983).

The subject of one data set is B16 melanocarcinoma. The data set is described as follows: B1 system, B16 melanocarcinoma in mice, NCI Protocol 1.300. The data set is classed as in vivo. To be noted: i.p. once a day for 9 days, host sex M. Here is the method:
The compounds were also evaluated in the B1 system against B16 melanocarcinoma in mice. This assay is conducted in accordance with the NCI Protocol 1.300 described in Geran et al., supra. Starting 24 hours after the tumor implantation, predetermined doses of the compound were injected intraperitoneally once a day for 9 days. The results are reported in Table VI below as the percent T/C.

For data set [1], the system named is lymphocytic leukemia P388. As to the kind of experiment: PS system, lymphocytic leukemia P388 in mice, NCI Protocol 1.200, survival. The data set is classed as in vivo. To be noted: i.p. once a day for 9 days. Here is the method:
Another indication of fraction activity is the effectiveness in the PS system against lymphocytic leukemia P388 in mice. These assays are conducted according to the NCI Protocol 1.200 described in Geran et al., supra. Starting 24 hours after the tumor implantation, previously determined doses of each compound were injected intraperitoneally once a day for 9 days. Survival time of treated leukemic mice is compared to that of untreated mice (T/C×100). A T/C value of 100% indicates no activity. A T/C value greater than 100% means that the treated mice are surviving longer than the control mice. A compound giving a T/C value greater than 125% is indicative of activity as defined by the NCI Protocols, above.

In data set [2] the test system is human epidermoid carcinoma of the mouth (KB). As to the kind of experiment: cells. To be noted: for IC50: Homo sapiens, KB, 72 h, read-out: ED50; for KB cytotoxicity compared with that reported for maytansine, maytanbutine and others: compared with Kupchan, J. Med. Chem. 21, Table II. Here is the method: The KB Cell Culture Screen used in guiding the above-described fractionations was conducted in accordance with the National Cancer Institute (NCI) Protocol 1.600 [Geran et al., Cancer Chemother. Rep., Part 3, 3: 17 (1972)] in which the effectiveness of the test compounds against cultivated cells of human epidermoid carcinoma of the mouth was evaluated. […] Such a dose is referred to as ED50 and activity is indicated for ED50 levels of ≤30 μg./ml. The smaller the ED50 level, the more cytotoxic the test material.

Data set [3] has as its system lymphocytic leukemia P388. To be noted: cited from earlier work; for activity against lymphocytic leukemia P388: at the microgram per kilogram level, Wani et al.; for dosage level at which activity in the PS system was demonstrated: U.S. Pat. No. 4,313,946.
Another data set deals with leukemia. To be noted: Kupchan et al., J. Org. Chem. 42; cited from earlier work.
The subject of a further data set is European corn borer. To be noted: U.S. Pat. No. 4,315,929; cited from earlier work.
The mark [4] stands for this setting: 4.00 μg./kg./inj., distilled water + alcohol.
Setting [5] is: 8.00 μg./kg./inj., distilled water + alcohol.
Setting [6] is: 16.00 μg./kg./inj., distilled water + alcohol.
The mark [7] stands for this setting: 32.00 μg./kg./inj., distilled water + alcohol.
Setting [8] is: 4.00 μg./kg./inj., distilled water + alcohol, host sex M.
The mark [9] stands for this setting: 8.00 μg./kg./inj., distilled water + alcohol, host sex M.
Where [10] appears, read: 16.00 μg./kg./inj., distilled water + alcohol, host sex M.
Where [11] appears, read: 32.00 μg./kg./inj., distilled water + alcohol, host sex M.

SMILES strings stand for the structures. Values after ≈ are worked out from the molar mass of the structure shown.

Take `COc1cc2cc(c1Cl)N1CC(=O)C(C)(O)C(=O)N(C)C(C)C(=O)O[C@@H](CC1=O)[C@]1(C)O[C@H]1[C@H](C)[C@@H]1C[C@@](O)(NC(=O)O1)[C@H](OC)/C=C/C=C(\C)C2OC` (some centres unmarked) [N-methyltrenudone]: the “T/C (%)” value was 109% in the data set with B16 melanocarcinoma (setting [4]); 93% in the data set with B16 melanocarcinoma (setting [5]); 111% in the data set on B16 melanocarcinoma (setting [6]); 95% in the data set on B16 melanocarcinoma (setting [7]); 153% in data set [1] (setting [8]); 108% in data set [1] (setting [9]). In addition, the “T/C (%)” value in data set [1] (setting [10]) and in data set [1] (setting [11]) was “toxic” in each case. For the same compound, the IC50 in data set [2] was under 10 ng/mL.

Take `COc1cc2cc(c1Cl)N(C)C(=O)C[C@H](OC(=O)[C@H](C)N(C)C(=O)C(C)C)[C@]1(C)O[C@H]1[C@H](C)[C@@H]1C[C@@](O)(NC(=O)O1)[C@H](OC)/C=C/C=C(\C)C2OC(C)=O` (some centres unmarked) [colubrinol acetate]: in data set [3], the “activity against lymphocytic leukemia P388” value is reported as “demonstrated activity”.

For the compound `COc1cc2cc(c1Cl)N(C)C(=O)C[C@H](OC(=O)[C@H](C)N(C)C(=O)C(C)C)[C@]1(C)O[C@H]1[C@H](C)[C@@H]1C[C@@](O)(NC(=O)O1)[C@H](OC)/C=C/C=C(\C)C2O` (some centres unmarked) [colubrinol], in data set [3], the “activity against lymphocytic leukemia P388” value is recorded as “demonstrated activity”.

As for `C=C(C)C(=O)N(C)[C@@H](C)C(=O)O[C@H]1CC(=O)N(C)c2cc(cc(OC)c2Cl)C(OC)/C(C)=C/C=C/[C@@H](OC)[C@@]2(O)C[C@H](OC(=O)N2)[C@@H](C)[C@@H]2O[C@@]12C` (some centres unmarked) [dehydrotrewiasine], in data set [3], the “dosage level at which activity in the PS system was demonstrated” value is 4 µg/kg.

Regarding `COc1cc2cc(c1Cl)N(C)C(=O)C[C@H](OC(=O)C(C)C)[C@]1(C)O[C@H]1[C@H](C)[C@@H]1C[C@@](O)(NC(=O)O1)[C@H](OC)/C=C/C=C(\C)C2OC(C)=O` (some centres unmarked) [maytanbutacine], the antileukemic activity result with leukemia is “antileukemic principle”.

On to `COc1cc2cc(c1Cl)N1CCC(C)(O)C(=O)NC(C)C(=O)O[C@@H](CC1=O)[C@]1(C)O[C@H]1[C@H](C)[C@@H]1C[C@@](O)(NC(=O)O1)[C@H](OC)/C=C/C=C(\C)C2OC` (some centres unmarked) [treflorine], for which the “T/C (%)” value in the data set with B16 melanocarcinoma (setting [4]) turned out to be 130%; in the data set with B16 melanocarcinoma (setting [5]), 160%; with B16 melanocarcinoma (setting [6]), 162%; in the data set with B16 melanocarcinoma (setting [7]), 178%; in data set [1] (setting [8]), 150%; in data set [1] (setting [9]), 144%. Also, the “T/C (%)” value is on record as 157% in data set [1] (setting [10]) and 150% in data set [1] (setting [11]). The IC50 in data set [2] was 0.27 ng/mL (≈ 0.36 nM). Besides, the “KB cytotoxicity compared with that reported for maytansine, maytanbutine and others” value in data set [2] is listed as “at least one order of magitude less”.

In the case of `COc1cc2cc(c1Cl)N1CC(O)C(C)(O)C(=O)NC(C)C(=O)O[C@@H](CC1=O)[C@]1(C)O[C@H]1[C@H](C)[C@@H]1C[C@@](O)(NC(=O)O1)[C@H](OC)/C=C/C=C(\C)C2OC` (some centres unmarked) [trenudine], the “T/C (%)” value is listed as 137% in the data set on B16 melanocarcinoma (1.00 μg./kg./inj., distilled water + alcohol); 147% with B16 melanocarcinoma (2.00 μg./kg./inj., distilled water + alcohol); 145% with B16 melanocarcinoma (setting [4]); 176% in the data set with B16 melanocarcinoma (setting [5]); 197% in the data set on B16 melanocarcinoma (setting [6]); “toxic” with B16 melanocarcinoma (setting [7]). Further, the “T/C (%)” value in data set [1] (2.00 μg./kg./inj., distilled water + alcohol, host sex F) is given as 144%; in data set [1] (4.00 μg./kg./inj., distilled water + alcohol, host sex F), 137%; in data set [1] (8.00 μg./kg./inj., distilled water + alcohol, host sex F), 146%; in data set [1] (16.00 μg./kg./inj., distilled water + alcohol, host sex F), 137%; in data set [1] (32.00 μg./kg./inj., distilled water + alcohol, host sex F), “toxic”. Also, the IC50 in data set [2] was determined as 0.64 ng/mL (≈ 0.835 nM). For the same compound, in data set [2], the “KB cytotoxicity compared with that reported for maytansine, maytanbutine and others” value is “at least one order of magitude less”.

With `COc1cc2cc(c1Cl)N(C)C(=O)C[C@H](OC(=O)[C@H](C)N(C)C(=O)C(C)C)[C@]1(C)O[C@H]1[C@H](C)[C@@H]1C[C@@](O)(NC(=O)O1)[C@H](OC)/C=C/C=C(\C)C2OC` (some centres unmarked) [trewiasine, reference compound], the “T/C (%)” value in the data set with B16 melanocarcinoma (1.00 μg./kg./inj., vehicle Klucel) was found to be 133%; in the data set on B16 melanocarcinoma (2.00 μg./kg./inj., vehicle Klucel) it was 140%; in the data set on B16 melanocarcinoma (4.00 μg./kg./inj., vehicle Klucel) it was 157%; in the data set with B16 melanocarcinoma (8.00 μg./kg./inj., vehicle Klucel), 185%; in the data set with B16 melanocarcinoma (16.00 μg./kg./inj., vehicle Klucel), 172%; in the data set with B16 melanocarcinoma (32.00 μg./kg./inj., vehicle Klucel), 183%. In addition, the “T/C (%)” value in data set [1] (4.00 μg./kg./inj., vehicle Klucel, host sex F) is given as 163%; in data set [1] (8.00 μg./kg./inj., vehicle Klucel, host sex F), 140%; in data set [1] (16.00 μg./kg./inj., vehicle Klucel, host sex F), 154%; in data set [1] (32.00 μg./kg./inj., vehicle Klucel, host sex F), 128%; in data set [1] (64.00 μg./kg./inj., vehicle Klucel, host sex F), 91%. The “dosage level at which activity in the PS system was demonstrated” value in data set [3] is 4 µg/kg. In addition, the “control of the European corn borer” value with European corn borer is given as “effective in controlling the European corn borer”. The same compound gave an ED50 in data set [2] (dose that inhibits growth to 50% of control, 3 days after drug addition) of 0.2 ng/mL (≈ 0.267 nM).
